# Laboratory results: patent US12649980B2, “Three-dimensional surface for protein and small molecule microarrays” (The Johns Hopkins University, priority 2019, dated 2026)
# Key:
# [1] = system: MCF-7; assay: [3H]-2DG uptake assay in MCF-7 cells; assay type: cell-based, human
# Protocol: Hay, Nat. Rev. […] To determine whether RgA could inhibit glucose uptake in cancer cell lines in addition to A549, the impact of RgA on [3H]-2DG uptake in six other cancer cell lines, including HCC1954, MCF-7, PANC10.05, Jurkat T, HeLa, and RKO was measured (FIG. 3A, Table 3).
# The inhibitory activity of compounds on glucose transport was analyzed by measuring the cell uptake of [3H]-2DG as previously described. Ulanovskaya et al., Chem. Biol. 2011, 18, 222-230. Briefly, cells were washed twice and incubated in low-glucose medium for 10 min. Cells were added drugs and incubated for another 10 min before adding [3H]-2DG. After 10 min incubation with [3H]-2DG, cells were washed twice and lysed with 0.2 N NaOH plus 0.2% SDS. The cell lysate was transferred to a new tube containing 1 mL of optiphase supermix. Glucose uptake was quantified with a scintillation counter.
# [2] = system: HCC1954; assay: Alamar blue cell proliferation assay, HCC1954; assay type: cell-based, human; conditions: HCC1954, 72 h; read-out: IC50 Assay B (Alamar blue cell proliferation)
# Protocol: The effects of RgA on cell growth, survival, and cell death was then determined. […] Treatment with 5 μM of RgA caused an increase in G1 phase by approximately 23% in comparison to control and approximately 7% and 17% decreases in cells in S and G2/M phases, respectively. The induction in G1 phase cell cycle arrest by RgA is dose-dependent (FIG. 5A, FIG. 16). […] Jones and Thompson, Genes Dev. 2009, 23, 537-548. […] The IC50 values of RgA against several human cancer cell lines also was determined using the alamar blue cell proliferation assay.
# Cells were seeded into a 96-well plate (Costar) in 180 μL culture media. After an overnight recovery, drugs were added and incubated for 72 h. After drug incubation, cells were added with 20 μL of alamar blue reagent and the plates were incubated at 37° C. for 6 h before reading the fluorescence (544 nm Ex/590 nm Em) with a plate reader. GraphPad Prism (v4.03) software was used to determine IC50 values using a four parameter logistic regression.
# [3] = target: T1, GLUT1 (Homo sapiens, UniProt P11166); assay: biotin-RgA pull-down and biotin probe competition binding assay, GLUT1; conditions: competition with 100 nM biotin-RgA probe, HEK293T GLUT1 lysate, Western blot densitometry; read-out: estimated Kd for GLUT1
# T1 construct: The full-length human SLC2A1, SLC2A3, and SLC2A4 genes were PCR amplified and inserted into pLenti6M vector 2; expressed in transfected cells
# T1 sequence (P11166 1-492): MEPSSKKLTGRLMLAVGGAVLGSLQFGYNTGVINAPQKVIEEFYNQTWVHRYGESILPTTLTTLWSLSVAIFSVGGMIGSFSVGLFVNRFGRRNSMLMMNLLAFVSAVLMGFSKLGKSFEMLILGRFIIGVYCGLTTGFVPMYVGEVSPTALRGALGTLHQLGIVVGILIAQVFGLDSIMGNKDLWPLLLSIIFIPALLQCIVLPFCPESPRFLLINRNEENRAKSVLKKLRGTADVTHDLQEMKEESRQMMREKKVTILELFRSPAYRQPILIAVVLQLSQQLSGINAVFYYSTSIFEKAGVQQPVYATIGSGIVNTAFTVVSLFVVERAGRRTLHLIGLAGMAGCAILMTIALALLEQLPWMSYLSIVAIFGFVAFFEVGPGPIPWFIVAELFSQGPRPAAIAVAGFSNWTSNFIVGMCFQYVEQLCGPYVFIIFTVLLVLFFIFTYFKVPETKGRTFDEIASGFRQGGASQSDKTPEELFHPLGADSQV
# Protocol: Next, the binding affinity of RgA for GLUT1 was determined using a RgA biotin pull-down assay. A biotin-RgA conjugate was synthesized by tethering the biotin moiety through carbon:carbon double bond in the FKBP-binding domain of RgA (FIG. 13). […] Using the biotin-RgA conjugate, a pulldown experiment with cell lysate containing detergent-solubilized GLUT1 protein prepared from HEK293T cells overexpressing GLUT1 was performed, followed by Western blot analysis with a GLUT1-specific antibody.
# The estimation of Kd value for RgA was determined with the biotin probe competition binding assay. […] After western blot, band intensities were quantified by densitometry analysis using Image J software. The assay was repeated three times. GraphPad Prism (v4.03) software was used to determine apparent Kd value for RgA using a nonlinear regression.
# [4] = system: MCF-7 tumors; assay: MCF-7 breast cancer xenograft in NSG mice; assay type: in vivo
# Protocol: Given that RgA inhibited multiple isoforms of GLUTs, including GLUT1, 3, and 4, it raised the question of whether animals could tolerate RgA. As breast cancer cell lines are more sensitive to RgA than other cell lines (FIG. 6A and Table 3), the anti-breast cancer activity of RgA in vivo was assessed. Two breast cancer cell lines were selected for the xenograft experiment-MCF-7, an ER+, HER2− line, and HCC1954, an ER−, HER2+ breast line. NSG mice bearing MCF-7 tumors were given daily vehicle or RgA at a dose of 2 mg/kg for […].
# All animal studies were conducted in compliance with all relevant ethical regulations set forth by the Johns Hopkins University Animal Care and Use Committee (ACUC). Female mice aged 4-6 weeks and weighing 18-22 g were maintained in a pathogen-free facility at Johns Hopkins Medical Institutions and cared for according to National Institutes of Health guidelines and under a protocol approved by the Johns Hopkins University Animal Care Committee. For the xenograft experiment of MCF-7, 17β-estradiol pellets (0.72 mg per pellet, 60-day release, Innovative Research of America, FL) were implanted at 5 days prior to tumor cell injection. Approximately 5 million MCF-7 cells were implanted subcutaneously into NSG mice (n=6 per group, NSG, The Jackson Laboratory). For the xenograft experiment of HCC1954, approximately 2 million cells were implanted subcutaneously into athymic nude mice (n=6 per group, NCr-nu/nu, Charles River). After tumors became palpable, the mice bearing MCF-7 and HCC1954 tumors were treated with either vehicle (saline with 5% PEG400, 5% Tween80 and 5% DMSO) or RgA via intraperitoneal injection every day. The tumor volume was measured periodically using a Vernier caliper and calculated according to the modified ellipsoid formula: tumor volume (mm^3)=(short axis)^2×(long axis)×π/6. After 30 days of treatment, the mice were killed, and the tumor tissues were extracted and stored in 10% formalin solution for future use.
compound,measurement,setting,value
"CCC(C)C1C(=O)NCC(=O)N(C)CCC=CC(=O)OCC(C)(C)C(=O)C(=O)N2CCCCC2C(=O)OC(CCc2ccc(OC)c(OC)c2)c2cccc(c2)NC(=O)CCC(=O)N(C)C(CC(C)C)C(=O)NC(Cc2ccccc2)C(=O)N1C (stereo not shown) [JW11-D2, Rapaglutin A]",IC50,[1]; MCF-7,3.3 nM
same,effect of high concentration of FK506 and rapamycin on the inhibitory activity of RgA,"[1]; MCF-7, 100 nM RgA, 20 μM FK506, 20 μM Rapamycin",negligible effect
same,IC50,[2],109 nM
same,Kd,[3],78 nM
same,tumor weight,"[4]; MCF-7 in NSG mice, 2 mg/kg daily, vehicle 454 mg",285 mg
same,tumor volume index on day 38,"[4]; MCF-7 in NSG mice, 2 mg/kg intraperitoneally daily, vehicle 2.84",1.70
same,weight loss and signs of adverse effects,"[4]; MCF-7 xenograft mice, 2 mg/kg daily",no significant weight loss or any signs of adverse effects
